{"source": "paper PMC10287695", "about": "“Non-covalent inhibitors of thioredoxin glutathione reductase with schistosomicidal activity in vivo” (Nature Communications, 2023)", "key": {"[1]": {"assay": "Reactivity with GSH or N-Boc protected methyl ester of selenocysteine (LCMS)", "assay_type": "physicochemical", "conditions": "up to 120 h", "protocol": "Dimethyl bis(N-tert-butoxycarbonyl)-L-selenocystine was synthesized as reported previously. (N-tert-butoxycarbonyl)-L-selenocysteine methyl ester was prepared in situ[86] in methanol or phosphate buffer. Compound 2 was added to the solution of (N-tert-butoxycarbonyl)-L-selenocysteine methyl ester in either methanol or phosphate buffer and incubated for 40 min, 24 h, and 120 h under N2 gas balloon. Additional amounts of NaBH4 were added at 12 h and 96 h to maintain the reducing conditions. Aliquots taken from methanol solution at each of the time points were concentrated in vacuo, mixed with water, and extracted with ethyl acetate. The organic layer was separated, concentrated in vacuo, re-dissolved in methanol and analyzed by LCMS. Aliquots taken from the phosphate buffer solution were extracted with ethyl acetate. The resulting organic layer was separated and concentrated in vacuo. The residue was re-dissolved in methanol and analyzed by LCMS. […] No additional spots were detected by TLC as well.\nCovalent TGR inhibitor TRi-1 was used as a positive control for the reaction with (N-tert-butoxycarbonyl)-L-selenocysteine methyl ester. The reactivity of TRi-1 was tested similarly as described above for compound 2."}, "[2]": {"assay": "Pharmacokinetics, oral gavage", "conditions": "for plasma concentration, individual animals (Animal 1, Animal 2) / plasma concentration: listed as 1 (8VP101); for plasma concentration, individual animals (Animal 1, Animal 2) / concentration at 30 min / concentration at 60 min / concentration at 120 min / concentration at 0.5 h / concentration at 1 h / concentration at 2 h / plasma concentration: 200 mg/kg; for concentration at 30 min / concentration at 60 min / concentration at 120 min / concentration at 0.5 h / concentration at 1 h / concentration at 2 h: female, Swiss Webster, mouse, plasma, po"}}, "note": "Where “and” joins values, the source holds several entries; their conditions need not be identical. Identical values can stand only once. Entries after “also recorded” stand apart in the source; their conditions may differ."}
{"smiles": "CCc1ccccc1-c1nc(CN[C@@H]2C[C@@H]3C[C@H]([C@H]2C)C3(C)C)c(C)o1", "note": "[Compound 2]", "values": [{"measurement": "reaction with thiol or selenol groups in GSH or protected selenocysteine", "setting": "[1]", "value": "No additional peaks were detected; also recorded: no reaction"}, {"measurement": "plasma concentration, individual animals (Animal 1, Animal 2)", "setting": "[2]; PO 200 mg/kg, 0.5 Hour", "value": "0.255 ug/mL and 0.704 uM"}, {"measurement": "plasma concentration, individual animals (Animal 1, Animal 2)", "setting": "[2]; PO 200 mg/kg, 1 Hour", "value": "0.273 ug/mL and 0.767 uM"}, {"measurement": "plasma concentration, individual animals (Animal 1, Animal 2)", "setting": "[2]; PO 200 mg/kg, 2 Hour", "value": "0.135 ug/mL and 0.409 uM"}, {"measurement": "concentration at 30 min", "setting": "[2]; Plasma concentration, mice, oral gavage, 30 min", "value": "714 nM and 252 ng/mL"}, {"measurement": "concentration at 60 min", "setting": "[2]; Plasma concentration, mice, oral gavage, 60 min", "value": "771 nM and 272 ng/mL"}, {"measurement": "concentration at 120 min", "setting": "[2]; Plasma concentration, mice, oral gavage, 120 min", "value": "396 nM and 140 ng/mL"}, {"measurement": "concentration at 0.5 h", "setting": "[2]; plasma concentration, Average, PO 200 mg/kg, 0.5 Hour", "value": 0.252, "unit": "µg/mL"}, {"measurement": "concentration at 1 h", "setting": "[2]; plasma concentration, Average, PO 200 mg/kg, 1 Hour", "value": 0.272, "unit": "µg/mL"}, {"measurement": "concentration at 2 h", "setting": "[2]; plasma concentration, Average, PO 200 mg/kg, 2 Hour", "value": 0.14, "unit": "µg/mL"}, {"measurement": "concentration at 0.5 h", "setting": "[2]; plasma concentration, individual animals (Animal 1, Animal 2), PO 200 mg/kg, 0.5 Hour", "value": "724 nM and 248 ng/mL"}, {"measurement": "concentration at 1 h", "setting": "[2]; plasma concentration, individual animals (Animal 1, Animal 2), PO 200 mg/kg, 1 Hour", "value": "774 nM and 270 ng/mL"}, {"measurement": "concentration at 2 h", "setting": "[2]; plasma concentration, individual animals (Animal 1, Animal 2), PO 200 mg/kg, 2 Hour", "value": "383 nM and 144 ng/mL"}, {"measurement": "concentration at 30 min", "setting": "[2]; plasma concentration, mice, 200 mg/kg p.o., 30 min", "value": 0.71, "unit": "µM"}, {"measurement": "concentration at 60 min", "setting": "[2]; plasma concentration, mice, 200 mg/kg p.o., 60 min", "value": 0.77, "unit": "µM"}, {"measurement": "concentration at 120 min", "setting": "[2]; plasma concentration, mice, 200 mg/kg p.o., 120 min", "value": 0.4, "unit": "µM"}, {"measurement": "plasma concentration", "setting": "[2]; mice, 200 mg/kg p.o., 30 min", "value": 0.714, "unit": "µM"}, {"measurement": "plasma concentration", "setting": "[2]; mice, 200 mg/kg p.o., 60 min", "value": 0.771, "unit": "µM"}, {"measurement": "plasma concentration", "setting": "[2]; mice, 200 mg/kg p.o., 120 min", "value": 0.396, "unit": "µM"}, {"measurement": "maximum plasma concentration", "setting": "[2]; mice, PO 200 mg/kg", "value": 0.77, "unit": "µM"}]}
